Results: US11970451B1, “6-(3-hydroxyphenyl)-2-methoxy-4-(3-methylphenyl)nicotinonitrile as an antimicrobial compound” (KING FAISAL UNIVERSITY, priority 2023, dated 2024)

Assays:
Candida albicans = assay: Antimicrobial screening by agar dilution; assay type: cell-based; conditions: after 10, 20, 40 and 60 minutes at all dilutions 1:100, 1:200, 1:400, 1:800
Experimental: (§1) The antibacterial properties of the synthesized compound 6-(3-hydroxyphenyl)-2-methoxy-4-(3-methylphenyl)nicotinonitrile were studied by the method of agar dilution. Test solutions of each compound was prepared in concentration of 1% using dimethylformamide as a solvent then they are diluted in physiological solution to obtain the final experimental dilutions 1:100, 1:200, 1:400, 1:800. The effects of these substances are compared with furacillin in a controllable study. The testing microbes used were gram positive bacteria Staphylococcus aureus, gram negative bacteria Pseudomonas aeruginosa and Escherichia coli and Candida albicans fungus. The experiments used for this survey were meat-pentonlu agar (EPA) for cultivation of bacteria and Saburo environment for the fungus. Each experiment used 1 mL of test solution on each plate […]. Two drops of emulsified with microbes feel were added. All experimental samples were taken from the agar after 10, 20, 40, 60 minutes in the environment on the basis of Patrk planted. The bacteria were cultivated at a temperature of 37° C. for 1 day and the mushroom was kept in a thermostat for […] at a temperature of 28° C. Then results were checked.

Staphylococcus aureus = assay: Antimicrobial screening by agar dilution; assay type: cell-based; conditions: after 10, 20, 40 and 60 minutes at all dilutions 1:100, 1:200, 1:400, 1:800
Experimental: as §1

Escherichia coli = assay: Antimicrobial screening by agar dilution; assay type: cell-based; conditions: after 10, 20, 40 and 60 minutes at all dilutions 1:100, 1:200, 1:400, 1:800
Experimental: as §1

Pseudomonas aeruginosa = assay: Antimicrobial screening by agar dilution; assay type: cell-based; conditions: after 10, 20, 40 and 60 minutes at all dilutions 1:100, 1:200, 1:400, 1:800
Experimental: as §1

COc1nc(-c2cccc(O)c2)cc(-c2cccc(C)c2)c1C#N [6-(3-hydroxyphenyl)-2-methoxy-4-(3-methylphenyl)nicotinonitrile]
melting point: 205 to 207 °C
inhibition activity (in words) (Candida albicans): highest inhibition activity
inhibition activity (in words) (Staphylococcus aureus): highest inhibition activity
inhibition activity (in words) (Escherichia coli): highest inhibition activity
inhibition activity (in words) (Pseudomonas aeruginosa): highest inhibition activity
